Test results: ChEMBL document CHEMBL3745668, “Synthesis and biological evaluation of novel 5-hydroxylaminoisoxazole derivatives as lipoxygenase inhibitors and metabolism enhancing agents” (Bioorg Med Chem, 2016)
Calls of active or inactive are those of the source. The rule behind the calls is not given here.

What was measured:
Rattus norvegicus [1] = species: Rattus norvegicus; experiment: Increase in FCCP-stimulated oxygen consumption rate of mitochondrial coupled state respiration in albino rat liver mitochondria at 10 uM by XF96 extracellular flux analysis; type: functional
Rattus norvegicus [2] = species: Rattus norvegicus; experiment: Effect on mitochondrial membrane potential in albino rat liver mitochondria using succinate as substrate by safranine A staining based assay in presence of rotenone or glutamate/malate; type: functional
Rattus norvegicus [3] = species: Rattus norvegicus; experiment: Increase in oxygen consumption rate of mitochondrial coupled state respiration in albino rat liver mitochondria using succinate as substrate at 10 uM by XF96 extracellular flux analysis in presence of rotenone; type: functional
[4] = molecular target: T1, Seed linoleate 13S-lipoxygenase-1 (Glycine max, UniProt P08170); experiment: Inhibition of soybean LOX1 assessed as reduction in linoleic acid oxidation measured every 10 s for 10 mins by spectrophotometry analysis
T1 sequence (P08170 whole entry): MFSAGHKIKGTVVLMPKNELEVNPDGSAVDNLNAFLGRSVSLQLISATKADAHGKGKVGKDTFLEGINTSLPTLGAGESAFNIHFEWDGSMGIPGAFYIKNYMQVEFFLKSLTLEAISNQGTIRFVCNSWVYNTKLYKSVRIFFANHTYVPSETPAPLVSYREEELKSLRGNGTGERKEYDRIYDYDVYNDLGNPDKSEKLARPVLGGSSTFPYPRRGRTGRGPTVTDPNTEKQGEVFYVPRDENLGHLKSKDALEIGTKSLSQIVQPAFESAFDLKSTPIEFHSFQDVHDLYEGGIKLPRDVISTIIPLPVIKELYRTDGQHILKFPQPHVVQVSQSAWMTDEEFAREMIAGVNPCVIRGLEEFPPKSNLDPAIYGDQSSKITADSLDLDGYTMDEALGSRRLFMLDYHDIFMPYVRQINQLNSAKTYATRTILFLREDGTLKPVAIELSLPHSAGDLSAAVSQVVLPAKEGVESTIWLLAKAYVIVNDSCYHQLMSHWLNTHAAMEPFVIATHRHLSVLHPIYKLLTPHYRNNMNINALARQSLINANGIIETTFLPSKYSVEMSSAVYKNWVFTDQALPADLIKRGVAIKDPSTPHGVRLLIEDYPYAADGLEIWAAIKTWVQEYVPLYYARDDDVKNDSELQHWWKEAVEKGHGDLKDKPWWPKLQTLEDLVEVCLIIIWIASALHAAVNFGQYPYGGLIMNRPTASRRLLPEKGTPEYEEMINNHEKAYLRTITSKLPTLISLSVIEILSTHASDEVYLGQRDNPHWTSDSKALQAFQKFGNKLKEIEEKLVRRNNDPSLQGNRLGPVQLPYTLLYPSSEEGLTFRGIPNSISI

Brain [5] = experiment: Antioxidant activity in albino rat brain homogenate assessed as inhibition of Fe(II)-induced lipid peroxidation after 60 mins by TBARS assay; type: functional, tissue-based
Brain [6] = experiment: Antioxidant activity in albino rat brain homogenate assessed as inhibition of Fe(III)-induced lipid peroxidation after 60 mins by TBARS assay; type: functional, tissue-based; settings: 1 h
Rattus norvegicus [7] = species: Rattus norvegicus; experiment: Effect on calcium-induced depolarization of albino rat liver mitochondria using succinate as substrate by safranine A staining based assay in presence of rotenone or glutamate/malate; type: functional
[8] = Cytotoxicity against albino rat primary cerebellar granule neurons assessed as reduction in cell viability at 30 uM after 24 hrs by MTT assay; settings: primary cerebellar granule neuron
Rattus norvegicus [9] = species: Rattus norvegicus; experiment: Increase in oxygen consumption rate of mitochondrial resting respiration in albino rat liver mitochondria at 10 uM by XF96 extracellular flux analysis in presence of oligomycin; type: functional
[10] = Antioxidant activity assessed as DPPH radical scavenging activity after 30 mins by spectrophotometry analysis; type: physicochemical
[11] = molecular target: T2, Seed linoleate 13S-lipoxygenase-1 (Glycine max) (UniProt P08170); experiment: Inhibition of soybean LOX1 assessed as reduction in linoleic acid oxidation at 50 uM measured every 10 s for 10 mins by spectrophotometry analysis
T2 sequence (whole entry): T1 sequence (P08170 whole entry)

[12] = Cytotoxicity against albino rat primary cerebellar granule neurons assessed as reduction in cell viability at 30 uM after 24 hrs by MTT assay relative to control; settings: primary cerebellar granule neuron
Brain [13] = experiment: Antioxidant activity in Wstar rat brain homogenate assessed as inhibition of Fe(II)-induced TBARS formation incubated for 15 mins by spectrophotometry analysis; type: functional, tissue-based; settings: 0.25 h
[14] = Antioxidant activity assessed as DPPH radical scavenging activity after 20 mins; type: physicochemical
SH-SY5Y = experiment: Cytotoxicity against human SH-SY5Y cells assessed as reduction in cell viability at 30 uM after 24 hrs by MTT assay relative to control; type: cell-based
[15] = Rattus norvegicus, Brain, 1 h, read-out: IC50

Row | Structure (SMILES) | IC50 [4] | IC50 (Brain [5]) | IC50 (Brain [6]) [µM] | EC50 [10] [µM] | IC50 ([4]; read-out: IC50) [µM] | IC50 (Brain [5]; [15]) [µM] | inhibition [11] | IC50 [14] [µM] | Activity (Rattus norvegicus [1]) | Activity (Rattus norvegicus [2]) | Activity (Rattus norvegicus [3]) | Activity (Rattus norvegicus [7]) | Activity [8] | Activity (Rattus norvegicus [9]) | Activity [12] [%] | IC50 (Brain [13]) [µM] | Activity (SH-SY5Y) [%]
1 | O=C(OCCOC12CC3CC(CC(C3)C1)C2)c1cc(N(O)C2CCCO2)on1 (stereo not given) | Not Active | Not Active | 35 | > 100 |  |  |  |  | Active | inactive | Active | inactive | Non-toxic | inactive |  |  | 
2 | O=C(OC1C2CC3CC(C2)CC1C3)c1cc(N(O)C2CCCO2)on1 (stereo not given) |  |  | 1.21 | 71 | 4 | 10.5 |  |  |  | inactive |  | inactive |  |  |  |  | 
3 | CC(C)OC(=O)C12CC3CC(CC(OC(=O)c4cc(N(O)C5CCCO5)on4)(C3)C1)C2 (stereo not given) |  |  | 1.58 | > 100 | 277 | 2.74 |  |  | Active | inactive | Active | inactive | Non-toxic | inactive |  |  | 
4 | O=C(OCc1ccc(C23CC4CC(CC(C4)C2)C3)cc1)c1cc(N(O)C2CCCO2)on1 (stereo not given) | Not Active |  | 5.45 | > 100 |  | 3.41 |  |  | Active | inactive | Active | inactive | Non-toxic | inactive |  |  | 

The next lines start with results.

Row | IC50 [4] | IC50 (Brain [5]) | IC50 (Brain [6]) [µM] | EC50 [10] [µM] | IC50 ([4]; read-out: IC50) [µM] | IC50 (Brain [5]; [15]) [µM] | inhibition [11] | IC50 [14] [µM] | Structure (SMILES) | Activity (Rattus norvegicus [1]) | Activity (Rattus norvegicus [2]) | Activity (Rattus norvegicus [3]) | Activity (Rattus norvegicus [7]) | Activity [8] | Activity (Rattus norvegicus [9]) | Activity [12] [%] | IC50 (Brain [13]) [µM] | Activity (SH-SY5Y) [%]
5 |  |  | 1.48 | 38 | 1 | 5.16 | Active |  | CC12CC3CC(C)(C1)CC(OC(=O)c1cc(N(O)C4CCCO4)on1)(C3)C2 (stereo not given) | Active | inactive | Active | inactive | Non-toxic | inactive |  |  | 
6 |  |  | 5.25 | 21 | 0.4 | 3.15 |  |  | O=C(OCCC12CC3CC(CC(C3)C1)C2)c1cc(N(O)C2CCCO2)on1 (stereo not given) | Active | inactive | Active | inactive |  | inactive | 77 |  | 
7 |  |  |  | 14 |  |  |  | 43 | C[C@H](c1cc2ccccc2s1)N(O)C(N)=O |  |  |  |  |  |  |  | > 50 | 
8 |  |  | 1.37 | 16 | 25 | 0.33 |  |  | O=C(OC12CC3CC(CC(C3)C1)C2)c1cc(N(O)C2CCCO2)on1 (stereo not given) | Active | inactive | Active | inactive |  | inactive |  |  | 
9 |  |  | 22 | 70 | 16 | 6.58 |  |  | O=C(OCC12CC3CC(CC(C3)C1)C2)c1cc(N(O)C2CCCO2)on1 (stereo not given) | Active | inactive | Active | inactive | Non-toxic | inactive |  |  | 22
